{"source": "patent US20090012595A1", "about": "“Therapeutic Drug-Eluting Endoluminal Covering” (priority 2003, published 2009)", "experiment": "Paclitaxel release from films into octanol/PBS or octanol/water, 232 nm", "assay_type": "physicochemical", "conditions": "PBS versus water, 0, 4 and 72 hours, 37° C., continuous shaking", "protocol": "Paclitaxel release—Small samples (circular discs, 8 mm) of the Paclitaxel films were placed in a solution of octanol and phosphate buffered saline (PBS) or water at a proportion of 5 ml Octanol and 10 ml PBS (or water). The solution, including the film disc, was shaken continuously at 37° C. for several days. The amount of Paclitaxel in the octanol phase of the solution was measured using a spectrophotometer at 232 nm. Measurements were carried out periodically and the amount of drug released was normalized to baseline values for control films containing no drug."}
{"smiles": "CC(=O)O[C@H]1C(=O)[C@@]2(C)[C@H]([C@H](OC(=O)c3ccccc3)[C@]3(O)C[C@H](OC(=O)[C@H](O)[C@@H](NC(=O)c4ccccc4)c4ccccc4)C(C)=C1C3(C)C)[C@]1(OC(C)=O)CO[C@@H]1C[C@@H]2O", "note": "[paclitaxel]", "values": [{"measurement": "Profile of drug release from films", "result": "significantly faster than in water"}]}
